The text below walks through data of patent EP3807270B1, “NOVEL HETEROARYL HETEROCYCLYL COMPOUNDS FOR THE TREATMENT OF AUTOIMMUNE DISEASE” (F. Hoffmann-La Roche AG, priority 2018, dated 2019).

One may read the inhibition as the percentage by which the read-out fell short of the control.

One data set has as its target T1, hTLR9 (Homo sapiens, UniProt Q9NR96).
T1 sequence (Q9NR96 26-1032): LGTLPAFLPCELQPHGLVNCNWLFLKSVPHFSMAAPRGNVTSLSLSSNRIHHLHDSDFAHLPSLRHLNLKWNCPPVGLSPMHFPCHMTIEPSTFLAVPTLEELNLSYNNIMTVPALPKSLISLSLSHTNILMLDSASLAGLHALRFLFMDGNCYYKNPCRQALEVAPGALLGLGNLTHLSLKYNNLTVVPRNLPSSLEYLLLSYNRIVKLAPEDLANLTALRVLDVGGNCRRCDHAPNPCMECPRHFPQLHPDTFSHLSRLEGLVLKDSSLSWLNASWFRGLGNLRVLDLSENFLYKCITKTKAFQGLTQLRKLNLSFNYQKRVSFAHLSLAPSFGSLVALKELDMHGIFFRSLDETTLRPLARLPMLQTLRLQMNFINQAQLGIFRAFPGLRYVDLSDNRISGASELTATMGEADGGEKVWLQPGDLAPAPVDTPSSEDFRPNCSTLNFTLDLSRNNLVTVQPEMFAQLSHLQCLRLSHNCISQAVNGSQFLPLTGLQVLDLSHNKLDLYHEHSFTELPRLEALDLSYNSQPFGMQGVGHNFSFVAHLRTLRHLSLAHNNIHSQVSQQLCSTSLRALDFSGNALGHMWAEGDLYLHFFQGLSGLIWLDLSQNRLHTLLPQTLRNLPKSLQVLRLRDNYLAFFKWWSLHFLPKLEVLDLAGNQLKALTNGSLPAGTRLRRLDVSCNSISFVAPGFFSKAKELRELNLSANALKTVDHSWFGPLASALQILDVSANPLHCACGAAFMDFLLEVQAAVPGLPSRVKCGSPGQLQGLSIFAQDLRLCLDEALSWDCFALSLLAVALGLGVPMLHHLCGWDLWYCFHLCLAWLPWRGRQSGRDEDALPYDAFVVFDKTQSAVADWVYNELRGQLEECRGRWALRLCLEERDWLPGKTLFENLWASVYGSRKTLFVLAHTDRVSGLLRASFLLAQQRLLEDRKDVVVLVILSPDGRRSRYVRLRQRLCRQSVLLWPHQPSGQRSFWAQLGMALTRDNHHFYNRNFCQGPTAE
More on the design: host or cells: HEK. The conditions noted are these: data disclosed in US20150105370; read-out: HEK/hTLR9 IC50; cited from earlier work.

For a further data set, the target named is T2, hTLR7 (Homo sapiens, UniProt Q9NYK1).
T2 sequence (Q9NYK1 27-1049): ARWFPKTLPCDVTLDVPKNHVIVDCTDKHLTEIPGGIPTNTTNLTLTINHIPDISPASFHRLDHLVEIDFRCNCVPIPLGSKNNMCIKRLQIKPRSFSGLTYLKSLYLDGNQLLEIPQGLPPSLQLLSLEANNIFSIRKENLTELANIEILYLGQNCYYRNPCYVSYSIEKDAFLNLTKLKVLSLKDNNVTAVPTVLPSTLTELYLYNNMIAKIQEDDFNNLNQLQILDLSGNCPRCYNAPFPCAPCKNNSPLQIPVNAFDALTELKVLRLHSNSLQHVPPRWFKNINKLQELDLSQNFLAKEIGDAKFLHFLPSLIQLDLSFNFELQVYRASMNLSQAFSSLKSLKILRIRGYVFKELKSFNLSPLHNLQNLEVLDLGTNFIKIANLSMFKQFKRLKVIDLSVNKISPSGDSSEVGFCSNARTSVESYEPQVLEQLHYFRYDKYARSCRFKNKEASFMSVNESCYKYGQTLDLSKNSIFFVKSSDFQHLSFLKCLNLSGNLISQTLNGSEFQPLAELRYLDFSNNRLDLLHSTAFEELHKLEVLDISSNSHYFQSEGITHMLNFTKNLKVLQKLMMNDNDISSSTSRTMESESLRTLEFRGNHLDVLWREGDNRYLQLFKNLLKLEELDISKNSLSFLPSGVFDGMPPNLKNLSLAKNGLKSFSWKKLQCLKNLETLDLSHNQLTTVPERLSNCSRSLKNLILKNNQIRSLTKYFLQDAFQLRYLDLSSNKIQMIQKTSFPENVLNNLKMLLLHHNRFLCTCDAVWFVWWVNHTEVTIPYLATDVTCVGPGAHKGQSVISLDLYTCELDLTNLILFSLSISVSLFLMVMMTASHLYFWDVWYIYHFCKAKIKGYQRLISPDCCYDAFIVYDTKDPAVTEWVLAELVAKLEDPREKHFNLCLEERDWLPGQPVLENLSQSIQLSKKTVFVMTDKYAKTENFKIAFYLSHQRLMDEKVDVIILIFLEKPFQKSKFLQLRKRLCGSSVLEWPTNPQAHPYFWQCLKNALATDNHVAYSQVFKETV
More on the design: host or cells: HEK. The conditions noted are these: data disclosed in US20150105370; read-out: HEK/hTLR7 IC50; cited from earlier work.

A short description of data set [1]: Human microsome stability assay. Format: in vitro ADME. The conditions noted are these: 1 µM test compound, 0.5 mg/mL liver microsomal protein, 37 °C. The method, then:
The human microsomal stability assay is used for early assessment of metabolic stability of a test compound in human liver microsomes.
Human liver microsomes (Cat.NO.: 452117, Corning, USA;Cat.NO.:H2610, Xenotech, USA) were preincubated with test compound for 10 minutes at 37 °C in 100 mM potassium phosphate buffer, pH 7.4. The reactions were initiated by adding NADPH regenerating system. The final incubation mixtures contained 1 µM test compound, 0.5 mg/mL liver microsomal protein, 1 mM MgClz, 1 mM NADP, 1 unit/mL isocitric dehydrogenase and 6 mM isocitric acid in 100 mM potassium phosphate buffer, pH 7.4. After incubation times of 0, 3, 6, 9, 15 and 30 minutes at 37 °C, 300 µL of cold acetonitrile (including internal standard) was added to 100 µL incubation mixture to terminate the reaction. Following precipitation and centrifugation, the amount of compound remaining in the samples were determined by LC-MS/MS. Controls of no NADPH regenerating system at zero and 30 minutes were also prepared and analyzed. […] Table 6. Human liver microsome stability of the compounds of present invention
A general note: Microsomes from liver hold many membrane-bound enzymes, among them those of drug oxidation.

The target of the next data set is T3, CYP2D6 (Homo sapiens, UniProt P10635).
T3 construct: tissue BD-Gentest 452117; host or cells: human liver microsomes
Kind of data set: CYP inhibition assay in human liver microsome. As to conditions: human liver microsomes, probe dextromethorphan, 10µM test compound, dextromethorphan substrate, <0: not or weak inhibitor, read-out: CYP 2D6 inhibition %@10µM. Format: in vitro ADME. The method, then:
This is a high throughput screening assay used for assessment of reversible inhibition of CYP2D6 activity of test compounds in human liver microsome (HLM) in early discovery stage. Table 4. Chemicals and materials used in the CYP inhibition assay
10 mM DMSO stock solutions of test compounds were diluted in DMSO to generate 2 mM intermediate stock solution. 250 nL of intermediate stock solution were transferred in duplicate into 3 separate 384 well microtitre plates (assay-ready plates). A mixture of HLM and each substrate was made up. 45 µL of HLM substrate mix was then transferred to each well of an assay ready plate and mixed. The negative (solvent) and positive control (standard inhibitor for CYP 2D6) were included in each assay ready plate. The assay ready plate was warmed to 37 °C in an incubator over 10 minutes. 5 µL pre-warmed NADPH regenerating system was added to each incubation well to start the reaction. Final incubation volume was 50 µL. The assay plate then was placed back in the 37 °C incubator. After 10-minute incubation, incubates were quenched by addition of 50 µL 100% acetonitrile containing internal standards (20 ng/mL D3-Dextrorphan). The supernatants were collected for RapidFire/MS/MS analysis.
RapidFire online solid phase extraction/sample injection system (Agilent) coupled with API4000 triple quadrupole mass spectrometer (AB Sciex) were used for sample analysis. The mobile phase composed of acetonitrile and water supplemented with 0.1% formic acid. A C4 solid phase extraction cartridge is used for sample separation. MS detection is achieved in positive ion MRM mode.
Peak areas for substrate, metabolite and internal standard are determined using the RapidFire integrator software (version 3.6.12009.12296). Peak area ratios (PAR) of metabolite and internal standard (stable-labelled metabolite) are then calculated. The measurement window for each experiment is then defined: • PAR (0% activity)= average PAR for all incubations containing concentrated inhibitor; • Par (100% activity)= average PAR for all incubations containing no inhibitor (DMSO controls); • % Activity (test inhibitor) • =[PAR(test inhibitor)-PAR(0% activity)]/[PAR(100% activity)-PAR(0% activity)]; • % Inhibition (test inhibitor)=100-% Activity (test inhibitor).

T3 sequence (P10635 whole entry): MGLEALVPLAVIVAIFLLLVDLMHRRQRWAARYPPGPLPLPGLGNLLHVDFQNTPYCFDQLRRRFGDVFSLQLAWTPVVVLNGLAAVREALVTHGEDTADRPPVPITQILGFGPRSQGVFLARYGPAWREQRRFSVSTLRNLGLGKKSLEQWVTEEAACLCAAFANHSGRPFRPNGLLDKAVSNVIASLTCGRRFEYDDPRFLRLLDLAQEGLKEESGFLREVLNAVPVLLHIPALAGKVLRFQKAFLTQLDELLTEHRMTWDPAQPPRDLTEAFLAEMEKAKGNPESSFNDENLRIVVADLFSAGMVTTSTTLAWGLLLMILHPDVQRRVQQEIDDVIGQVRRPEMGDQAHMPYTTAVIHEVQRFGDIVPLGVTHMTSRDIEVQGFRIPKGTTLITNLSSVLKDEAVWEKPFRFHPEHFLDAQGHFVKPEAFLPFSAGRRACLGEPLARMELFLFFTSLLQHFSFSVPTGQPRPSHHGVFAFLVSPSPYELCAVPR

Regarding `C[C@@H]1CN(c2ccc(C#N)c3ncccc23)C[C@H](CN2CC(NS(=O)(=O)c3ccc(F)cc3)C2)O1` [ER-894155], the IC50 at hTLR9 was above 10 µM; on hTLR7, 0.282 µM.

As for `Cc1nn(C)cc1S(=O)(=O)NC1CCN(C[C@H]2CN(c3ccc(C#N)c4ncccc34)C[C@@H](C)O2)CC1` [ER-894160], the IC50 on hTLR9 is above 10 µM; on hTLR7, 0.199 µM.

As to `C[C@@H]1CN(c2ccc(C#N)c3ncccc23)C[C@H](CN2CC[C@@H](NC(=O)c3ccccc3)C2)O1` [ER-894544], the IC50 on hTLR9 was above 6.2 µM; at hTLR7 it was 0.043 µM.

For `C[C@@H]1CN(c2ccc(C#N)c3ncnn23)C[C@H](CN2CCN(c3cnc4c(c3)CNCC4)CC2)O1` [Example 27, 5-[(2R,6S)-2-methyl-6-[[4-(5,6,7,8-tetrahydro-1,6-naphthyridin-3-yl)piperazin-1-yl]methyl]morpholin-4-yl]-[1,2,4]triazolo[1,5-a]pyridine-8-carbonitrile], the “Clearance of Human microsome” value in data set [1] worked out at 7.28 mL/min/kg.

In the case of `C[C@@H]1CN(c2ccc(C#N)c3ncccc23)C[C@H](CN2CC3COCC(C2)N3c2cnc3c(c2)CNC3)O1` [Example 37, 5-[(2S,6R)-2-[[9-(6,7-dihydro-5H-pyrrolo[3,4-b]pyridin-3-yl)-3-oxa-7,9-diazabicyclo[3.3.1]nonan-7-yl]methyl]-6-methyl-morpholin-4-yl]quinoline-8-carbonitrile], in data set [1], the “Clearance of Human microsome” value is reported as 6.72 mL/min/kg.

In the case of `COc1ccc(N2C[C@H](CN3CCN(c4cc5c(cn4)CCNC5)CC3)O[C@H](C)C2)c2nccnc12` [Example 89, (2R,6S)-4-(8-methoxyquinoxalin-5-yl)-2-methyl-6-[[4-(5,6,7,8-tetrahydro-2,6-naphthyridin-3-yl)piperazin-1-yl]methyl]morpholine], the “Clearance of Human microsome” value in data set [1] stood at 6.54 mL/min/kg.

On to `Cc1cnc2c(C#N)ccc(N3C[C@H](CN4CCN(c5cc6c(cn5)CCNC6)CC4)O[C@H](C)C3)c2n1` [Example 90, 2-methyl-8-[(2R,6S)-2-methyl-6-[[4-(5,6,7,8-tetrahydro-2,6-naphthyridin-3-yl)piperazin-1-yl]methyl]morpholin-4-yl]quinoxaline-5-carbonitrile], for which, at CYP2D6, the inhibition at 10 min, 10 µM came out at 5%.

In the case of `C[C@@H]1CN(c2ccc(C(F)(F)F)c3nccnc23)C[C@H](CN2CCN(c3cc4c(cn3)CCNC4)CC2)O1` [Example 91, (2R,6S)-2-methyl-6-[[4-(5,6,7,8-tetrahydro-2,6-naphthyridin-3-yl)piperazin-1-yl]methyl]-4-[8-(trifluoromethyl)quinoxalin-5-yl]morpholine], the inhibition at 10 min, 10 µM on CYP2D6 was determined as 14%.

For `C[C@@H]1CN(c2cc(=O)n(C)c3ncccc23)C[C@H](CN2CCN(c3ccc4c(n3)CN[C@@H]4C)CC2)O1` [Example 100, 1-methyl-4-[(2R,6S)-2-methyl-6-[[4-[(5R)-5-methyl-6,7-dihydro-5H-pyrrolo[3,4-b]pyridin-2-yl]piperazin-1-yl]methyl]morpholin-4-yl]-1,8-naphthyridin-2-one], the “Clearance of Human microsome” value in data set [1] worked out at 8.54 mL/min/kg.

For the compound `CCn1c(=O)cc(N2C[C@H](CN3CCN(c4ccc5c(n4)CN[C@@H]5C)CC3)O[C@H](C)C2)c2cccnc21` [Example 101, 1-ethyl-4-[(2R,6S)-2-methyl-6-[[4-[(5R)-5-methyl-6,7-dihydro-5H-pyrrolo[3,4-b]pyridin-2-yl]piperazin-1-yl]methyl]morpholin-4-yl]-1,8-naphthyridin-2-one], the “Clearance of Human microsome” value in data set [1] is given as 6.67 mL/min/kg.

As to `C[C@@H]1CN(c2cc(=O)n(C)c3ncccc23)C[C@H](CN2CCN(c3cc4c(cn3)CCNC4)CC2)O1` [Example 103, 1-methyl-4-[(2R,6S)-2-methyl-6-[[4-(5,6,7,8-tetrahydro-2,6-naphthyridin-3-yl)piperazin-1-yl]methyl]morpholin-4-yl]-1,8-naphthyridin-2-one], the “Clearance of Human microsome” value in data set [1] is given as 6.15 mL/min/kg.
